Patent US11447489B2, “Dihydropyrimidinylthiazole for the treatment and prophylaxis of hepatitis B virus infection” (priority 2017, dated 2022)

Tested on: HBsAg
Test: HepG2.2.15 cells primary screen assay: HBsAg assay (CLIA of secreted HBsAg)
Type: cell-based, HBV
Details: Hepatitis B virus
Experimental: Example 23: HepG2.2.15 Cells Primary Screen Assay
HepG2.2.15 cells (Acs et al. Proc Natl Acad Sci USA, 84, (1987), 4641-4), a constitutively HBV-expressing cell line were cultured in DMEM+Glutamax-I medium (Invitrogen, Carlsbad, Calif., USA), supplemented with 10% fetal bovine serum (Invitrogen) and G418 (Invitrogen) at a final concentration of 200 mg/L and maintained in 5% CO2 at 37° C.
HepG2.2.15 cells were seeded in duplicate into white, 96-well plates at 1.5×10^4 cells/well. The cells were treated with a three-fold serial dilution series of the compounds in DMSO. The final DMSO concentration in all wells was 1% and DMSO was used as no drug control.
The HBsAg chemiluminescence immunoassay (CLIA) kit (Autobio Diagnostics Co., Zhengzhou, China, Catalog number: CL0310-2) was used to measure the levels of secreted HBV antigens semi-quantitatively. For the detection 50 μL/well culture supernatant was used and HBsAg was quantified using HBsAg chemiluminescence immunoassay (CLIA) kit (Autobio Diagnostics Co., Zhengzhou, China, Catalog number: CL0310-2), 50 μL of the supernatant was transferred to the CLIA assay plate and 50 μL of enzyme conjugate reagent was added into each well. The plates were sealed and gently agitated for 1 hour at room temperature. The supernatant-enzyme-mixture was discarded and wells were washed 6 times with 300 μL of PBS. The residual liquid was removed by plating the CLIA plate […] on absorbent tissue paper. 25 μL of substrates A and B were added to each well. Luminance was measured using a luminometer (Mithras LB 940 Multimode Microplate Reader) after 10 minutes incubation. Dose-response curves were generated and the IC50 value was extrapolated by using the E-WorkBook Suite (ID Business Solutions Ltd., Guildford, UK). The IC50 was defined as the compound concentration (or conditioned media log dilution) at which HBsAg secretion was reduced by 50% compared to the no drug control.
The compounds of the present invention were tested for their capacity to inhibit HBsAg as described herein.

SMILES | IC50
COC(=O)C1=C(CN2CCN3C(=O)N(CC(C)(C)CC(=O)NCCCCCCOc4cc5c(cc4OC)-c4cc(=O)c(C(=O)O)cn4C(C(C)(C)C)C5)C[C@@H]3C2)NC(c2nccs2)=N[C@H]1c1ccc(F)cc1Cl (stereo partly drawn) [Example 16, 9-[6-[[4-[(8aS)-7-[[(4R)-4-(2-chloro-4-fluoro-phenyl)-5-methoxycarbonyl-2-thiazol-2-yl-1,4-dihydropyrimidin-6-yl]methyl]-3-oxo-5,6,8,8a-tetrahydro-1H-imidazo[1,5-a]pyrazin-2-yl]-3,3-dimethyl-butanoyl]amino]hexoxy]-6-tert-butyl-10-methoxy-2-oxo-6,7-dihydrobenzo[a]quinolizine-3-carboxylic Acid] | 107 nM
COC(=O)C1=C(CN2CCN(CCCCCOc3cc4c(cc3OC)-c3cc(=O)c(C(=O)O)cn3C(C(C)(C)C)C4)CC2)NC(c2nccs2)=N[C@H]1c1ccc(F)cc1Cl (stereo partly drawn) [Example 2, 6-tert-butyl-9-[5-[4-[[(4R)-4-(2-chloro-4-fluoro-phenyl)-5-methoxycarbonyl-2-thiazol-2-yl-1,4-dihydropyrimidin-6-yl]methyl]piperazin-1-yl]pentoxy]-10-methoxy-2-oxo-6,7-dihydrobenzo[a]quinolizine-3-carboxylic Acid] | 88 nM
COC(=O)C1=C(CN2CCN(c3cc(F)cc(N4CCc5nc(-c6ncccn6)ncc5C4C)n3)C(C(=O)O)C2)NC(c2nccs2)=N[C@H]1c1ccc(F)cc1Cl (stereo partly drawn) [Example 22, 4-[[(4R)-4-(2-chloro-4-fluoro-phenyl)-5-methoxycarbonyl-2-thiazol-2-yl-1,4-dihydropyrimidin-6-yl]methyl]-1-[4-fluoro-6-[5-methyl-2-pyrimidin-2-yl-7,8-dihydro-5H-pyrido[4,3-d]pyrimidin-6-yl]-2-pyridyl]piperazine-2-carboxylic Acid] | 618 nM
COC(=O)C1=C(CN(C)CCCCCCOc2cc3c(cc2OC)-c2cc(=O)c(C(=O)O)cn2C(C(C)(C)C)C3)NC(c2nccs2)=N[C@H]1c1ccc(F)cc1Cl (stereo partly drawn) [Example 9, 6-tert-butyl-9-[6-[[(4R)-4-(2-chloro-4-fluoro-phenyl)-5-methoxycarbonyl-2-thiazol-2-yl-1,4-dihydropyrimidin-6-yl]methyl-methyl-amino]hexoxy]-10-methoxy-2-oxo-6,7-dihydrobenzo[a]quinolizine-3-carboxylic Acid] | 113 nM
COC(=O)C1=C(CN2CCN(CCCOc3cc4c(cc3OC)-c3cc(=O)c(C(=O)O)cn3C(C(C)(C)C)C4)C(C(=O)O)C2)NC(c2nccs2)=N[C@H]1c1ccc(F)cc1Cl (stereo partly drawn) [Example 5, 6-tert-butyl-9-[3-[2-carboxy-4-[[(4R)-4-(2-chloro-4-fluoro-phenyl)-5-methoxycarbonyl-2-thiazol-2-yl-1,4-dihydropyrimidin-6-yl]methyl]piperazin-1-yl]propoxy]-10-methoxy-2-oxo-6,7-dihydrobenzo[a]quinolizine-3-carboxylic Acid] | 3480 nM
COC(=O)C1=C(CN2CCN3C(=O)N(CCCCCCOc4cc5c(cc4OC)-c4cc(=O)c(C(=O)O)cn4C(C(C)(C)C)C5)CC3C2)NC(c2nccs2)=N[C@H]1c1ccc(F)cc1Cl (stereo partly drawn) [Example 8, 6-tert-butyl-9-[6-[7-[[(4R)-4-(2-chloro-4-fluoro-phenyl)-5-methoxycarbonyl-2-thiazol-2-yl-1,4-dihydropyrimidin-6-yl]methyl]-3-oxo-5,6,8,8a-tetrahydro-1H-imidazo[1,5-a]pyrazin-2-yl]hexoxy]-10-methoxy-2-oxo-6,7-dihydrobenzo[a]quinolizine-3-carboxylic Acid] | 48 nM
COC(=O)C1=C(CN2CCN(CCCCCCOc3cc4c(cc3OC)-c3cc(=O)c(C(=O)O)cn3C(C(C)(C)C)C4)CC2C(=O)O)NC(c2nccs2)=N[C@H]1c1ccc(F)cc1Cl (stereo partly drawn) [Example 6, 6-tert-butyl-9-[6-[3-carboxy-4-[[(4R)-4-(2-chloro-4-fluoro-phenyl)-5-methoxycarbonyl-2-thiazol-2-yl-1,4-dihydropyrimidin-6-yl]methyl]piperazin-1-yl]hexoxy]-10-methoxy-2-oxo-6,7-dihydrobenzo[a]quinolizine-3-carboxylic Acid] | 262 nM
